# Patent US20150313225A1
# Where two headings read alike, the source gives them in different places.
# Key:
# Assay type in all cases: cell-based
# Alternaria solani = assay: Microtest against early blight caused by Alternaria solani (Alteso); details: solo product; for inhibition of growth at […]: 0.063 ppm
# Leptosphaeria nodorum = assay: Microtest against wheat leaf spots caused by Leptosphaeria nodorum (Leptno); details: solo product
# Pyricularia oryzae = assay: microbe, parasite or virus in culture; details: for Observed efficacy: solo product; for inhibition of growth at 1 ppm / inhibition of growth at 0.016 ppm / inhibition of growth at 4 ppm / inhibition of growth at 16 ppm / inhibition of growth at 63 ppm / inhibition of growth at 0.004 ppm: Pyricularia oryzae, 168 h, read-out: Observed efficacy
# Septoria tritici = assay: Microtest against leaf blotch on wheat caused by Septoria tritici (Septtr); details: solo product; for inhibition of growth at 1.6e-05 ppm: 0.000016 ppm
# Botrytis cinerea = assay: Microtiterplate test against the grey mold Botrytis cinerea (Botrci); details: solo product
# Phytophthora infestans = assay: microbe, parasite or virus in culture; details: for Observed efficacy: solo product
# [1] = Phytophthora infestans, 168 h, read-out: Observed efficacy
# [2] = Botrytis cinerea, 168 h, 0.063 ppm, read-out: Observed efficacy
# [3] = Botrytis cinerea, 168 h, 0.25 ppm, read-out: Observed efficacy
# [4] = Zymoseptoria tritici, 168 h, read-out: Observed efficacy
# [5] = Zymoseptoria tritici, 168 h, […], read-out: Observed efficacy
# [6] = Alternaria solani, 168 h, 0.001 ppm, read-out: Observed efficacy
# [7] = Alternaria solani, 168 h, 0.004 ppm, read-out: Observed efficacy
# [8] = Alternaria solani, 168 h, 0.016 ppm, read-out: Observed efficacy
# [9] = Alternaria solani, 168 h, read-out: Observed efficacy
# [10] = Botrytis cinerea, 168 h, 0.016 ppm, read-out: Observed efficacy
# [11] = Parastagonospora nodorum, 168 h, read-out: Observed efficacy
# [12] = Parastagonospora nodorum, 168 h, 0.016 ppm, read-out: Observed efficacy
# [13] = Botrytis cinerea, 168 h, read-out: Observed efficacy
# [14] = Alternaria solani, 168 h, 4 ppm, read-out: Observed efficacy
# [15] = Alternaria solani, 168 h, 16 ppm, read-out: Observed efficacy
# [16] = Botrytis cinerea, 168 h, 4 ppm, read-out: Observed efficacy
# [17] = Botrytis cinerea, 168 h, 16 ppm, read-out: Observed efficacy
# [18] = Alternaria solani, 168 h, 63 ppm, read-out: Observed efficacy
compound,measurement,setting,value
CC1COC(Cn2cncn2)(c2ccc(Oc3ccc(Cl)cc3)cc2Cl)O1 (centres unmarked) [Difenoconazol],Observed efficacy,Alternaria solani; 0.004 ppm,5
same,Observed efficacy,Alternaria solani; 0.016 ppm,5
same,Observed efficacy,Leptosphaeria nodorum; 0.016 ppm,29
same,Observed efficacy,Pyricularia oryzae; 1 ppm,11
same,Observed efficacy,Septoria tritici; 0.016 ppm,26
Fc1ccc([C@]2(Cn3cncn3)O[C@H]2c2ccccc2Cl)cc1 [Epoxiconazol],Observed efficacy,Alternaria solani; 0.004 ppm,5
same,Observed efficacy,Alternaria solani; 0.016 ppm,8
same,Observed efficacy,Botrytis cinerea; 0.016 ppm,11
same,Observed efficacy,Septoria tritici; 0.016 ppm,16
O=c1c2cc(F)ccc2nc(-n2cncn2)n1-c1ccc(Cl)cc1Cl [Fluquinconazol],Observed efficacy,Phytophthora infestans; 4 ppm,0
"CC(O)(Cn1cncn1)c1ccc(Oc2ccc(Cl)cc2)cc1Cl (centres unmarked) [I-17, 2-[2-chloro-4-(4-chlorophenoxy)phenyl]-1-(1,2,4-triazol-1-yl)propan-2-ol]",inhibition of growth at 4e-06 ppm,"Alternaria solani; Alternaria solani, 168 h, 0.000004 ppm, read-out: Observed efficacy",6%
same,inhibition of growth at 1.6e-05 ppm,"Alternaria solani; Alternaria solani, 168 h, 0.000016 ppm, read-out: Observed efficacy",0%
same,inhibition of growth at 6.3e-05 ppm,"Alternaria solani; Alternaria solani, 168 h, 0.000063 ppm, read-out: Observed efficacy",0%
same,inhibition of growth at 1 ppm,Pyricularia oryzae,61%
same,inhibition of growth at 16 ppm,Phytophthora infestans; [1],5%
same,inhibition of growth at 6.3e-05 ppm,"Botrytis cinerea; Botrytis cinerea, 168 h, 0.000063 ppm, read-out: Observed efficacy",9%
same,inhibition of growth at […],Botrytis cinerea; [2],0%
same,inhibition of growth at […],Botrytis cinerea; [3],0%
same,inhibition of growth at 1e-06 ppm,"Septoria tritici; Zymoseptoria tritici, 168 h, 0.000001 ppm, read-out: Observed efficacy",14%
same,inhibition of growth at 4e-06 ppm,"Septoria tritici; Zymoseptoria tritici, 168 h, 0.000004 ppm, read-out: Observed efficacy",12%
same,inhibition of growth at 1.6e-05 ppm,Septoria tritici; [4],19%
same,inhibition of growth at 2.5e-07 ppm,Septoria tritici; [5],10%
"CC(C)C(O)(Cn1cncn1)c1ccc(Oc2ccc(Cl)cc2)cc1Cl (centres unmarked) [I-19, 2-[2-chloro-4-(4-chlorophenoxy)phenyl]-3-methyl-1-(1,2,4-triazol-1-yl)butan-2-ol]",inhibition of growth at 0.001 ppm,Alternaria solani; [6],1%
same,inhibition of growth at 0.004 ppm,Alternaria solani; [7],0%
same,inhibition of growth at 0.016 ppm,Alternaria solani; [8],0%
same,inhibition of growth at […],Alternaria solani; [9],25%
same,inhibition of growth at […],"Leptosphaeria nodorum; Parastagonospora nodorum, 168 h, 0.25 ppm, read-out: Observed efficacy",64%
same,inhibition of growth at 0.016 ppm,Botrytis cinerea; [10],20%
same,inhibition of growth at […],Botrytis cinerea; [2],29%
same,inhibition of growth at 1.6e-05 ppm,Septoria tritici; [4],12%
same,inhibition of growth at 0.001 ppm,Septoria tritici; [4],20%
same,inhibition of growth at 6.3e-05 ppm,Septoria tritici; [5],13%
"COC(C)(Cn1cncn1)c1ccc(Oc2ccc(Cl)cc2)cc1Cl (centres unmarked) [I-20, 1-[2-[2-chloro-4-(4-chlorophenoxy)phenyl]-2-methoxy-propyl]-1,2,4-triazole]",inhibition of growth at 0.004 ppm,Alternaria solani; [7],0%
same,inhibition of growth at […],Alternaria solani; [9],30%
same,inhibition of growth at 0.001 ppm,Leptosphaeria nodorum; [11],5%
same,inhibition of growth at 0.004 ppm,Leptosphaeria nodorum; [11],10%
same,inhibition of growth at 0.016 ppm,Leptosphaeria nodorum; [12],14%
same,inhibition of growth at 0.016 ppm,Pyricularia oryzae,0%
same,inhibition of growth at […],Botrytis cinerea; [2],16%
same,inhibition of growth at […],Botrytis cinerea; [3],16%
same,inhibition of growth at 1 ppm,Botrytis cinerea; [13],58%
same,inhibition of growth at 0.001 ppm,Septoria tritici; [4],5%
"COCC(O)(Cn1cncn1)c1ccc(Oc2ccc(Cl)cc2)cc1Cl (centres unmarked) [I-26, 2-[2-chloro-4-(4-chlorophenoxy)phenyl]-1-methoxy-3-(1,2,4-triazol-1-yl)propan-2-ol]",inhibition of growth at 0.001 ppm,Alternaria solani; [6],5%
same,inhibition of growth at 0.016 ppm,Alternaria solani; [8],4%
same,inhibition of growth at 0.001 ppm,Leptosphaeria nodorum; [11],9%
same,inhibition of growth at 0.004 ppm,Leptosphaeria nodorum; [11],15%
same,inhibition of growth at 0.016 ppm,Leptosphaeria nodorum; [12],24%
same,inhibition of growth at 0.016 ppm,Pyricularia oryzae,0%
same,inhibition of growth at 1 ppm,Pyricularia oryzae,55%
same,inhibition of growth at […],Botrytis cinerea; [2],44%
same,inhibition of growth at 0.001 ppm,Septoria tritici; [4],29%
same,inhibition of growth at 6.3e-05 ppm,Septoria tritici; [5],19%
"CCCCCCCCc1c(CC)nc2ncnn2c1N [II-1, ametoctradin, reference compound]",Observed efficacy,Alternaria solani; 4 ppm,5
same,Observed efficacy,Alternaria solani; 16 ppm,2
same,Observed efficacy,Alternaria solani; 63 ppm,6
same,Observed efficacy,Phytophthora infestans; 1 ppm,75
same,Observed efficacy,Botrytis cinerea; 16 ppm,3
same,Observed efficacy,Botrytis cinerea; 63 ppm,4
"CCOC(=O)C1CC(=O)C(=C(O)C2CC2)C(=O)C1 (centres unmarked) [II-3a, trinexapac-ethyl, reference compound]",inhibition of growth at 4 ppm,Alternaria solani; [14],12%
same,inhibition of growth at 16 ppm,Alternaria solani; [15],27%
same,inhibition of growth at 4 ppm,Pyricularia oryzae,5%
same,inhibition of growth at 16 ppm,Pyricularia oryzae,21%
same,inhibition of growth at 63 ppm,Pyricularia oryzae,81%
same,inhibition of growth at 4 ppm,Botrytis cinerea; [16],7%
same,inhibition of growth at 16 ppm,Botrytis cinerea; [17],5%
same,inhibition of growth at 63 ppm,"Botrytis cinerea; Botrytis cinerea, 168 h, 63 ppm, read-out: Observed efficacy",15%
same,inhibition of growth at 4 ppm,"Septoria tritici; Zymoseptoria tritici, 168 h, 4 ppm, read-out: Observed efficacy",13%
"Cn1cc(C(=O)Nc2ccc(F)cc2-c2ccc(Cl)c(Cl)c2)c(C(F)F)n1 [II-6, bixafen, reference compound]",Observed efficacy,Alternaria solani; 0.001 ppm,5
same,Observed efficacy,Alternaria solani; 0.004 ppm,38
same,Observed efficacy,Pyricularia oryzae; 0.016 ppm,2
same,Observed efficacy,Botrytis cinerea; 0.016 ppm,8
"O=C(Nc1ccccc1-c1ccc(Cl)cc1)c1cccnc1Cl [II-7, boscalid, reference compound]",inhibition of growth at 0.001 ppm,Alternaria solani; [6],5%
same,inhibition of growth at 0.004 ppm,Alternaria solani; [7],6%
same,inhibition of growth at 4 ppm,"Leptosphaeria nodorum; Parastagonospora nodorum, 168 h, 4 ppm, read-out: Observed efficacy",23%
same,inhibition of growth at 16 ppm,Pyricularia oryzae,2%
same,inhibition of growth at […],Botrytis cinerea; [3],38%
"COC(=O)Nc1nc2ccccc2[nH]1 [II-8, carbendazim, reference compound]",inhibition of growth at 4 ppm,Alternaria solani; [14],7%
same,inhibition of growth at 16 ppm,Alternaria solani; [15],10%
same,inhibition of growth at 63 ppm,Alternaria solani; [18],34%
same,inhibition of growth at 0.004 ppm,"Botrytis cinerea; Botrytis cinerea, 168 h, 0.004 ppm, read-out: Observed efficacy",5%
same,inhibition of growth at 0.016 ppm,Botrytis cinerea; [10],3%
same,inhibition of growth at 16 ppm,"Septoria tritici; Zymoseptoria tritici, 168 h, 16 ppm, read-out: Observed efficacy",16%
"N#Cc1nn(-c2c(Cl)cc(C(F)(F)F)cc2Cl)c(N)c1[S+]([O-])C(F)(F)F (centres unmarked) [II-20c, fipronil, reference compound]",inhibition of growth at 1 ppm,"Alternaria solani; Alternaria solani, 168 h, 1 ppm, read-out: Observed efficacy",6%
same,inhibition of growth at 4 ppm,Alternaria solani; [14],2%
same,inhibition of growth at 4 ppm,Pyricularia oryzae,1%
same,inhibition of growth at 16 ppm,Pyricularia oryzae,8%
same,inhibition of growth at 1 ppm,Phytophthora infestans; [1],4%
"N#Cc1c[nH]cc1-c1cccc2c1OC(F)(F)O2 [II-34, fludioxonil, reference compound]",inhibition of growth at 0.016 ppm,Pyricularia oryzae,36%
"CO/N=C(/C1=NOCCO1)c1ccccc1Oc1ncnc(Oc2ccccc2Cl)c1F [II-37, fluoxastrobin, reference compound]",inhibition of growth at 0.016 ppm,Alternaria solani; [8],11%
same,inhibition of growth at […],Alternaria solani; [9],27%
same,inhibition of growth at 0.004 ppm,Pyricularia oryzae,3%
same,inhibition of growth at 0.016 ppm,Pyricularia oryzae,8%
same,inhibition of growth at 0.016 ppm,Phytophthora infestans; [1],4%
same,inhibition of growth at 1 ppm,Botrytis cinerea; [13],5%
same,inhibition of growth at 4 ppm,Botrytis cinerea; [16],10%
same,inhibition of growth at 16 ppm,Botrytis cinerea; [17],23%
"Cn1cc(C(=O)Nc2ccccc2-c2cc(F)c(F)c(F)c2)c(C(F)F)n1 [II-42, fluxapyroxad, reference compound]",Observed efficacy,Alternaria solani; 0.001 ppm,4
"CC(C)C1C2CCC1c1c(NC(=O)c3cn(C)nc3C(F)F)cccc12 (centres unmarked) [II-50, isopyrazam, reference compound]",Observed efficacy,Alternaria solani; 0.016 ppm,15
same,Observed efficacy,Pyricularia oryzae; 0.004 ppm,1
same,Observed efficacy,Phytophthora infestans; 16 ppm,23
same,Observed efficacy,Botrytis cinerea; 0.016 ppm,6
"Cc1ccc(C(C)NC(=O)[C@@H](NC(=O)OC(C)C)C(C)C)cc1 (some centres unmarked) [II-51, iprovalicarb, reference compound]",Observed efficacy,Alternaria solani; 4 ppm,1
same,Observed efficacy,Alternaria solani; 16 ppm,2
same,Observed efficacy,Alternaria solani; 63 ppm,1
same,Observed efficacy,Leptosphaeria nodorum; 16 ppm,19
same,Observed efficacy,Pyricularia oryzae; 4 ppm,0
same,Observed efficacy,Botrytis cinerea; 4 ppm,2
same,Observed efficacy,Botrytis cinerea; 16 ppm,3
same,Observed efficacy,Botrytis cinerea; 63 ppm,6
"CON=C(C(=O)OC)c1ccccc1CON=C(C)c1cccc(C(F)(F)F)c1 [II-92, trifloxystrobin, reference compound]",inhibition of growth at 0.004 ppm,Alternaria solani; [7],7%
same,inhibition of growth at 0.016 ppm,Alternaria solani; [8],11%
same,inhibition of growth at […],"Leptosphaeria nodorum; Parastagonospora nodorum, 168 h, 0.063 ppm, read-out: Observed efficacy",39%
same,inhibition of growth at 0.004 ppm,Pyricularia oryzae,11%
same,inhibition of growth at 0.016 ppm,Pyricularia oryzae,26%
same,inhibition of growth at 4 ppm,Botrytis cinerea; [16],2%
same,inhibition of growth at 16 ppm,Botrytis cinerea; [17],6%
CC1(C)CCC(Cc2ccc(Cl)cc2)C1(O)Cn1cncn1 (centres unmarked) [Metconazol],Observed efficacy,Alternaria solani; 0.016 ppm,17
same,Observed efficacy,Pyricularia oryzae; 1 ppm,58
same,Observed efficacy,Phytophthora infestans; 0.004 ppm,2
same,Observed efficacy,Septoria tritici; 0.016 ppm,24
CCN(Cc1ccc(Cl)nc1)/C(=C/[N+](=O)[O-])NC [Nitenpyram],inhibition of growth at 4 ppm,Alternaria solani; [14],2%
same,inhibition of growth at 16 ppm,Alternaria solani; [15],2%
same,inhibition of growth at 63 ppm,Alternaria solani; [18],8%
same,inhibition of growth at 63 ppm,"Leptosphaeria nodorum; Parastagonospora nodorum, 168 h, 63 ppm, read-out: Observed efficacy",23%
same,inhibition of growth at 4 ppm,Pyricularia oryzae,1%
same,inhibition of growth at 16 ppm,Pyricularia oryzae,0%
same,inhibition of growth at 63 ppm,Pyricularia oryzae,3%
same,inhibition of growth at 63 ppm,"Septoria tritici; Zymoseptoria tritici, 168 h, 63 ppm, read-out: Observed efficacy",10%
CCC(=O)C1=C([O-])CC(C(=O)[O-])CC1=O.[Ca+2] (centres unmarked) [Prohexadion-ca],Observed efficacy,Alternaria solani; 4 ppm,6
same,Observed efficacy,Alternaria solani; 16 ppm,2
same,Observed efficacy,Pyricularia oryzae; 4 ppm,2
same,Observed efficacy,Pyricularia oryzae; 16 ppm,2
same,Observed efficacy,Pyricularia oryzae; 63 ppm,3
same,Observed efficacy,Botrytis cinerea; 4 ppm,10
same,Observed efficacy,Botrytis cinerea; 16 ppm,5
same,Observed efficacy,Botrytis cinerea; 63 ppm,4
same,Observed efficacy,Septoria tritici; 63 ppm,15
CC(C)(C)C(O)(CCc1ccc(Cl)cc1)Cn1cncn1 (centres unmarked) [Tebuconazol],Observed efficacy,Alternaria solani; 0.016 ppm,8
same,Observed efficacy,Phytophthora infestans; 0.016 ppm,1
same,Observed efficacy,Botrytis cinerea; 0.016 ppm,9
same,Observed efficacy,Septoria tritici; 0.016 ppm,5
CC1(C)CC/C(=C\c2ccc(Cl)cc2)C1(O)Cn1cncn1 (centres unmarked) [Triticonazol],Observed efficacy,Pyricularia oryzae; 1 ppm,1
same,Observed efficacy,Pyricularia oryzae; 4 ppm,59
